Experimental findings from PubChem BioAssay AID1645868 (Buhrlage Lab, Dana-Farber Cancer Institute and Novartis …, 2021) are described below.

The assay has as its target OTU domain-containing protein 3 (Homo sapiens) (UniProt Q5T2D3). The assay is described as follows: Validation of screening hits, potency titration, in vitro enzymatic, OTU domain-containing protein 3 DUB inhibitors (AID 1645868). The conditions noted are these: purified OTUD3, ubiquitin-rhodamine cleavage fluorescence, 2 h.

The source made the active and inactive calls.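 The calls were made as follows: active = maximal percent inhibition of the deubiquitinase OTUD3 of at least 30% across the tested doses; inactive = the rest.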

Sequence of OTU domain-containing protein 3 (Homo sapiens) (Q5T2D3 whole entry, looked up, the tested form may be a part): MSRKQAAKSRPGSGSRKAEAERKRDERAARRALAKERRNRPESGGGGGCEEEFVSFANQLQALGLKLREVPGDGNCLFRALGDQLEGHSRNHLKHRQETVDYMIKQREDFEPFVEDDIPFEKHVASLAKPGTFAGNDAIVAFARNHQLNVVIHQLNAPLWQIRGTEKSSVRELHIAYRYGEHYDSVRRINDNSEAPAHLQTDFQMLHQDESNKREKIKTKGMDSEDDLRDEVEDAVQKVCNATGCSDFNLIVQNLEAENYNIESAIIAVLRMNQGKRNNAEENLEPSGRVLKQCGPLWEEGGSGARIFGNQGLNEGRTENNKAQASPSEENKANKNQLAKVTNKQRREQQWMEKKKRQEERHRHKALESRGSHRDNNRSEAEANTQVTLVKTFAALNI

`Cc1ccc(-c2nc(Cn3cnc4ccccc4c3=O)cs2)cc1`: the IC50 (commonly the point on the concentration scale where inhibition reaches its midpoint) is 18.9 µM. Next, `Cc1ccccc1C(=O)OCCN1C(=O)c2cccc3c(N4CCCCC4)ccc(c23)C1=O`: > 50 µM (inactive); `CCS(=O)(=O)c1ccccc1C(=O)Nc1ccc2sc(C)nc2c1`: > 50 µM (inactive); `O=C(Nc1cccn(Cc2c(Cl)cccc2Cl)c1=O)c1ccccc1[N+](=O)[O-]`: > 50 µM (inactive). The figure for `Cc1ccc(NC(=O)Cn2c(Nc3cccc(C)c3)nc(C)cc2=O)cc1` is 31 µM; for `CC(=O)NCc1nc(-c2ccc3c(c2)nc(C)c(=O)n3C2CCCC2)no1` it is > 50 µM (inactive); for `CC(=O)c1ccc(N2C(=O)N(Cc3cccc([N+](=O)[O-])c3)c3ccccc3S2(=O)=O)cc1` it is > 50 µM (inactive).

As to `COc1ccccc1-c1nc(-c2cn(-c3ccc(C)cc3)nn2)no1`, the IC50 is > 50 µM (inactive).

For `O=C(CCc1ccccc1)N(CC1CCCO1)c1nc2ccccc2s1` (stereo not drawn), the IC50 was > 50 µM (inactive).

With `Cc1ccc2c(c1)c(=O)c(C(=O)c1ccccc1)cn2CC(=O)Nc1ccc2c(c1)OCCO2`, the IC50 is 14.2 µM. The figure for `CC(=O)c1cccc(NC(=O)c2ccc3[nH]c4c(c3c2)CC(C)CC4)c1` (stereo not drawn) is > 50 µM (inactive); for `O=C(CSc1nnc(CNC(=O)c2ccccc2F)o1)Nc1ccc(OC(F)(F)F)cc1` it is 29.6 µM; for `O=C1N(Cc2ccc(F)cc2)CCN1c1ccc2c(c1)CCC2` it is > 50 µM (inactive). On to `FC(F)(F)c1cccc(Nc2nnc(-c3cccnc3)s2)c1`, for which the IC50 is > 50 µM (inactive).

Consider `O=C(NC1CCN(Cc2ccccc2)CC1)c1[nH]nc2c1COc1ccccc1-2`, for which the IC50 is > 50 µM (inactive). Next, `O=C(COc1ccc(S(=O)(=O)N2CCOCC2)cc1)N1CCC(Cc2ccccc2)CC1`: > 50 µM (inactive); `O=C(/C=C/c1ccc2c(c1)OCO2)Nc1nc2c(s1)COCC2`: > 50 µM (inactive); `COc1ccc(OC)c(-c2cc(C(=O)Nc3c(C)nn(Cc4ccccc4)c3C)no2)c1`: > 50 µM (inactive). `O=C(Nc1ccccc1-c1nc2ccccc2[nH]1)c1sc2ccccc2c1Cl`: the IC50 was 4.1 µM. In the case of `COc1cc2cc3c(c(O)c2c(O)c1-c1c(OC)cc2cc4c(c(O)c2c1O)C(=O)OC1CC(C)OC41)C(=O)OC1CC(C)OC31` (stereo not drawn), the IC50 was > 50 µM (inactive).

As for `Cc1c(CC(=O)Nc2nn[nH]n2)c(=O)oc2cc3c(cc12)CCC1(CCCCC1)O3`, the IC50 was > 50 µM (inactive). For the compound `O=C(c1ccc(COc2cccc3ccccc23)o1)N1CCC(Cc2ccccc2)CC1`, the IC50 was > 50 µM (inactive). Consider `N#Cc1ccc(Cc2ncc(C(F)(F)F)cc2Cl)s1`, for which the IC50 is > 50 µM (inactive). As for `Cc1nc2ccccn2c1C1(O)C(=O)Nc2c(Cl)cc(Cl)cc21` (stereo not drawn), the IC50 is > 50 µM (inactive). The figure for `CCOc1ccc(NC(=O)Cn2c(=O)n(CCCCCC(=O)NCc3ccc(F)cc3)c(=O)c3sccc32)cc1` is 2.67 µM; for `O=C(Nc1ccncc1)c1ncoc1-c1cccc(Cl)c1` it is > 50 µM (inactive); for `O=C(/C=C/c1cnc2ccccc2c1)NCc1ccccc1` it is > 50 µM (inactive). The figure for `Nc1ccc(F)c(NS(=O)(=O)c2ccccc2)c1` is > 50 µM (inactive).

For `COc1cccc2cc(C(=O)Nc3ccc4c(c3)OCCO4)oc12`, the IC50 is > 50 µM (inactive). Next, `O=C(NCCCN1CCc2ccccc2C1)c1cc2c(s1)CS(=O)(=O)C2`: > 50 µM (inactive). The figure for `CC(=O)c1ccc(NC(=O)CSc2nc(-c3ccccc3)nc3c2COC(C)(C)C3)cc1` is > 50 µM (inactive); for `O=C(c1cccnc1)N1CCC2(CC1)CC1(CO2)Nc2ccccc2-n2cccc21` (stereo not drawn) it is > 50 µM (inactive).

Consider `COc1ccc(NCc2cc(=O)n3[nH]c(NCc4ccc(C(C)C)cc4)nc3n2)cc1`, for which the IC50 was > 50 µM (inactive).

In the case of `COc1ccc(NC(=O)c2nnc(C(=O)NCCN3CCCCCC3)s2)cc1`, the IC50 is 38.8 µM. Consider `COc1ccc(NC(=O)c2[nH]nc3c2COc2ccccc2-3)c(OC)c1`, for which the IC50 was 19.1 µM. Next, `CCOc1ccc(NC(=O)Cn2cc(C(=O)c3ccc(Cl)cc3)c(=O)c3cc(OC)ccc32)cc1`: 4.68 µM; `COc1ccc2nc(Nc3ncc4c(n3)CCCC4=O)nc(C)c2c1`: > 50 µM (inactive); `CCOC(=O)c1cc2c(ccn2C)n1CC(=O)N1CCc2ccccc2C1`: > 50 µM (inactive).

`COc1cccc2cc(C(=O)Nc3nc(-c4ccncc4)cs3)oc12`: the IC50 is 1.51 µM. `COc1ccc(C2C(C(=O)Nc3ccccc3OC)=C(C)Nc3nnnn32)cc1Br` (stereo not drawn): the IC50 is > 50 µM (inactive). The figure for `CC(Sc1n[nH]c2nc3ccccc3n12)C(=O)Nc1ccc2c(c1)OCCO2` (stereo not drawn) is > 50 µM (inactive); for `Cc1ccc(-n2c(=O)[nH]c3c(C(N)=O)nc(-c4cccnc4)nc32)cc1` it is 30.8 µM; for `CC1CCN(c2nnc(-c3nc(C4CC4)no3)c3ccccc23)CC1` it is > 50 µM (inactive). Next, `O=C(Cc1ccccc1F)N1CCC2(CC1)CC1(CO2)Nc2ccccc2-n2cccc21` (stereo not drawn): > 50 µM (inactive); `C=C(NC(=O)C(=C)NC(=O)c1csc(C2=N[C@@H]3c4csc(n4)[C@H]4NC(=O)c5csc(n5)[C@H]([C@](C)(O)[C@@H](C)O)NC(=O)[C@H]5CSC(=N5)/C(=C/C)NC(=O)C([C@@H](C)O)NC(=O)c5csc(n5)C3(CC2)NC(=O)[C@H](C)NC(=O)C(=C)NC(=O)[C@H](C)NC(=O)C([C@@H](C)CC)N[C@@H]2C=Cc3c(C(C)O)cc(nc3[C@H]2O)C(=O)OC4C)n1)C(N)=O` (stereo partly drawn): > 50 µM (inactive); `O=C(NC(Cc1ccccc1)c1nc2ccccc2[nH]1)c1ccccn1` (stereo not drawn): > 50 µM (inactive). Consider `Nc1ccc(NC(=O)c2cc3c(s2)CCC3)cc1[N+](=O)[O-]`, for which the IC50 is 23.5 µM. The figure for `O=C1COc2ccccc2N1Cc1noc(-c2ccccc2)n1` is > 50 µM (inactive); for `O=C(Cc1cccc2ccccc12)Nc1nc2ccc(F)cc2s1` it is > 50 µM (inactive); for `CC(C)c1nc2sc3c(N(CCO)CCO)ncnc3c2c2c1COC(C)(C)C2` it is > 50 µM (inactive). Next, `O=C(COc1cccc2c1CCN(Cc1cccnc1)C2=O)Nc1ccc2c(c1)OCCO2`: > 50 µM (inactive); `Cc1cccc(CNC(=O)C2CCCN(S(=O)(=O)Cc3ccc(F)cc3)C2)c1` (stereo not drawn): 41.6 µM; `CC1=C(c2ccc(C)c(C)c2)S(=O)(=O)NC1=NCC(=O)NCCc1ccc(C)cc1`: > 50 µM (inactive). Next, `COc1ccc(C(=O)CSc2nnc(-c3cccnc3)n2-c2ccccc2)cc1`: > 50 µM (inactive); `CCOc1ccc2nc(NC(=O)C3CCN(S(=O)(=O)c4ccc5c(c4)CC(C)N5C(C)=O)CC3)sc2c1` (stereo not drawn): > 50 µM (inactive); `CC1CCCN(S(=O)(=O)c2cc3cc(F)ccc3oc2=O)C1` (stereo not drawn): > 50 µM (inactive). As to `COc1ccc2nc(SCC(=O)Nc3ccc(NC(C)=O)cc3)c(C)cc2c1`, the IC50 was 31.9 µM. On to `CC1=CN2C(=N)/C(=C/c3cn(Cc4ccc(Cl)cc4)c4ccccc34)C(=O)N=C2S1`, for which the IC50 was > 50 µM (inactive).
